Source: patent US12281122B1, “PI3K inhibitors” (Cogent Biosciences, Inc., priority 2023, dated 2025)

Legend:
[1] = test system: SKBR3 (PI3Kα-Wild Type) cell line; assay: HTRF phospho-AKT(S473) cell assay in SKBR3 cells; type: cell-based, human; details: Homo sapiens, SK-BR-3, 2 hours compound incubation, PDGF-BB stimulated
How it was run: (§1)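 pAKT(S473) in lysates read by HTRF after a 2 h, 37 °C compound exposure (12-point 1:3 series, max 0.5% DMSO). SKBR3 (wild type, top 10 μM) received 70 ng/ml PDGF-BB during the final 15 min; T47D (H1047R, top 5 μM) was unstimulated. IC50 values derived from the dose-response.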

[2] = test system: T47D (PI3Kα-H1047R) cell line; assay: HTRF phospho-AKT(S473) cell assay in T47D cells; type: cell-based, human; details: Homo sapiens, 2 hours compound incubation
How it was run: as §1

[3] = SKBR3 (PI3Kα-Wild Type) cells, HTRF phospho-AKT(S473)
[4] = T47D (PI3Kα-H1047R) cells, HTRF phospho-AKT(S473)
[5] = HTRF phospho-AKT(S473), SKBR3 (PI3Kα-Wild Type) cells
[6] = HTRF phospho-AKT(S473), T47D (PI3Kα-H1047R) cells

Row | IC50 [1, 3] | IC50 [2, 4] | IC50 [1, 5] | IC50 [2, 6] | Compound | further results
1 |  |  | ≥ 5000 nM | < 250 nM | Cc1cc([C@@H](C)Nc2ccc(Cl)nc2C(=O)NS(C)(=O)=O)c2nc(N3CCN(c4nc(C(F)F)ncc4F)CC3)n(C)c(=O)c2c1 [Compound 772, (R)-6-chloro-3-((1-(2-(4-(2-(difluoromethyl)-5-fluoropyrimidin-4-yl)piperazin-1-yl)-3,6-dimethyl-4-oxo-3,4-dihydroquinazolin-8-yl)ethyl)amino)-N-(methylsulfonyl) picolinamide] | 
2 |  |  | ≥ 5000 nM | 250 to 500 nM | Cc1cc([C@@H](C)Nc2ccc(Cl)nc2C(=O)NS(C)(=O)=O)c2nc(N3C[C@H]4CC(n5cc(C)cn5)C[C@@H]4C3)n(C)c(=O)c2c1 (single isomer, unassigned) [Compound 676, 6-chloro-3-(((R)-1-(3,6-dimethyl-2-((3aS*,6aS*)-5-(4-methyl-1H-pyrazol-1-yl)hexahydrocyclopenta [c]pyrrol-2(1H)-yl)-4-oxo-3,4-dihydroquinazolin-8-yl)ethyl)amino)-N-(methylsulfonyl) picolinamide] | 
3 |  |  | 1000 to 5000 nM | < 250 nM | CC(=O)N1CCN(c2ccc(-c3nc4c([C@@H](C)Nc5ccc(Cl)nc5C(=O)NS(C)(=O)=O)cc(C)cc4c(=O)n3C)c(F)c2)CC1 [Compound 785, (R)-3-((1-(2-(4-(4-acetylpiperazin-1-yl)-2-fluorophenyl)-3,6-dimethyl-4-oxo-3,4-dihydroquinazolin-8-yl)ethyl)amino)-6-chloro-N-(methylsulfonyl) picolinamide] | 
4 |  |  | ≥ 5000 nM | 250 to 500 nM | Cc1cc([C@@H](C)Nc2ccc(Cl)nc2C(=O)NS(C)(=O)=O)c2nc(N3CC[C@H](c4ccc(C)nc4)C3)n(C)c(=O)c2c1 (relative stereo) [Compound 660, 6-chloro-3-(((R)-1-(3,6-dimethyl-2-((R*)-3-(6-methylpyridin-3-yl)pyrrolidin-1-yl)-4-oxo-3,4-dihydroquinazolin-8-yl)ethyl)amino)-N-(methylsulfonyl) picolinamide] | 
5 |  |  | ≥ 5000 nM | < 250 nM | Cc1cc([C@@H](C)Nc2ccc(Cl)nc2C(=O)NS(C)(=O)=O)c2nc(-c3ccc([C@@H]4CN(C)CCO4)cc3)n(C)c(=O)c2c1 (relative stereo) [Compound 803, 6-chloro-3-(((R)-1-(3,6-dimethyl-2-(4-((R*)-4-methylmorpholin-2-yl)phenyl)-4-oxo-3,4-dihydroquinazolin-8-yl)ethyl)amino)-N-(methylsulfonyl) picolinamide] | 

More lines, now with the values behind:

Row | Compound | IC50 [1, 3] | IC50 [2, 4] | IC50 [1, 5] | IC50 [2, 6] | further results
6 | Cc1ccc(C2CCN(c3nc4c([C@@H](C)Nc5ccc(Cl)nc5C(=O)NS(C)(=O)=O)cc(C)cc4c(=O)n3C)CC2)nc1 [Compound 403, (R)-6-chloro-3-((1-(3,6-dimethyl-2-(4-(5-methylpyridin-2-yl)piperidin-1-yl)-4-oxo-3,4-dihydroquinazolin-8-yl)ethyl)amino)-N-(methylsulfonyl) picolinamide] | ≥ 5000 nM | < 250 nM |  |  | 
7 | Cc1cnc([C@H]2[C@@H]3CN(c4nc5c([C@@H](C)Nc6ccc(Cl)nc6C(=O)NS(C)(=O)=O)cc(C)cc5c(=O)n4C)C[C@@H]32)nc1 [Compound 502, 6-chloro-3-(((R)-1-(3,6-dimethyl-2-((1R,5S,6R)-6-(5-methylpyrimidin-2-yl)-3-azabicyclo[3.1.0]hexan-3-yl)-4-oxo-3,4-dihydroquinazolin-8-yl)ethyl)amino)-N-(methylsulfonyl) picolinamide] |  |  | 1000 to 5000 nM | 250 to 500 nM | 
8 | Cc1cc([C@@H](C)Nc2ccc(Cl)nc2C(=O)NS(C)(=O)=O)c2nc(N3CCC(c4ccn(C5CC5)n4)CC3)n(C)c(=O)c2c1 [Compound 267, (R)-6-chloro-3-((1-(2-(4-(1-cyclopropyl-1H-pyrazol-3-yl)piperidin-1-yl)-3,6-dimethyl-4-oxo-3,4-dihydroquinazolin-8-yl)ethyl)amino)-N-(methylsulfonyl) picolinamide] | 1000 to 5000 nM | < 250 nM |  |  | 
9 | Cc1cc([C@@H](C)Nc2ccc(Cl)nc2C(=O)NS(C)(=O)=O)c2nc(N3CCC(c4ccn(C(C)C)n4)CC3)n(C)c(=O)c2c1 [Compound 249, (R)-6-chloro-3-((1-(2-(4-(1-isopropyl-1H-pyrazol-3-yl)piperidin-1-yl)-3,6-dimethyl-4-oxo-3,4-dihydroquinazolin-8-yl)ethyl)amino)-N-(methylsulfonyl) picolinamide] | 1000 to 5000 nM | < 250 nM |  |  | 
10 | Cc1cc([C@@H](C)Nc2ccc(Cl)nc2C(=O)NS(C)(=O)=O)c2nc(-c3cnc(N(C)C)nc3)n(C)c(=O)c2c1 [Compound 852, (R)-6-chloro-3-((1-(2-(2-(dimethylamino)pyrimidin-5-yl)-3,6-dimethyl-4-oxo-3,4-dihydroquinazolin-8-yl)ethyl)amino)-N-(methylsulfonyl) picolinamide] |  |  |  |  | IC50 ([1]; SKBR3 (PI3Kα-Wild Type) cell line, phospho-AKT(S473) HTRF): ≥ 5000 nM; IC50 ([2]; T47D (PI3Kα-H1047R) cell line, phospho-AKT(S473) HTRF): 250 to 500 nM
11 | Cc1cc([C@@H](C)Nc2ccc(Cl)nc2C(=O)NS(C)(=O)=O)c2nc(N3CCN(c4cncc(C)n4)CC3)n(C)c(=O)c2c1 [Compound 529, (R)-6-chloro-3-((1-(3,6-dimethyl-2-(4-(6-methylpyrazin-2-yl)piperazin-1-yl)-4-oxo-3,4-dihydroquinazolin-8-yl)ethyl)amino)-N-(methylsulfonyl) picolinamide] |  |  | 1000 to 5000 nM | < 250 nM | 
12 | Cc1cc([C@@H](C)Nc2ccc(Cl)nc2C(=O)NS(C)(=O)=O)c2nc(N3CCC4(CCC(O)CC4)CC3)n(C)c(=O)c2c1 [Compound 275, (R)-6-chloro-3-((1-(2-(9-hydroxy-3-azaspiro[5.5]undecan-3-yl)-3,6-dimethyl-4-oxo-3,4-dihydroquinazolin-8-yl)ethyl)amino)-N-(methylsulfonyl) picolinamide] | ≥ 5000 nM | < 250 nM |  |  | 
13 | Cc1cnc([C@@H]2CCCN(c3nc4c([C@@H](C)Nc5ccc(Cl)nc5C(=O)NS(C)(=O)=O)cc(C)cc4c(=O)n3C)C2)nc1 (relative stereo) [Compound 625, 6-chloro-3-(((R)-1-(3,6-dimethyl-2-((R*)-3-(5-methylpyrimidin-2-yl)piperidin-1-yl)-4-oxo-3,4-dihydroquinazolin-8-yl)ethyl)amino)-N-(methylsulfonyl) picolinamide] |  |  | ≥ 5000 nM | 250 to 500 nM | 
14 | Cc1cc([C@@H](C)Nc2ccc(Cl)nc2C(=O)NS(C)(=O)=O)c2nc(N3C[C@@H]4[C@H](C3)[C@H]4c3cnc(C(F)F)nc3)n(C)c(=O)c2c1 [Compound 522, 6-chloro-3-(((R)-1-(2-((1R,5S,6S)-6-(2-(difluoromethyl)pyrimidin-5-yl)-3-azabicyclo[3.1.0]hexan-3-yl)-3,6-dimethyl-4-oxo-3,4-dihydroquinazolin-8-yl)ethyl)amino)-N-(methylsulfonyl) picolinamide] |  |  | 1000 to 5000 nM | < 250 nM | 
15 | Cc1cc([C@@H](C)Nc2ccc(Cl)nc2C(=O)NS(C)(=O)=O)c2nc(C3CCN(c4ccc(C#N)cn4)CC3)n(C)c(=O)c2c1 [Compound 186, (R)-6-chloro-3-((1-(2-(1-(5-cyanopyridin-2-yl)piperidin-4-yl)-3,6-dimethyl-4-oxo-3,4-dihydroquinazolin-8-yl)ethyl)amino)-N-(methylsulfonyl) picolinamide] | 1000 to 5000 nM | < 250 nM |  |  | 
16 | Cc1cc([C@@H](C)Nc2ccc(Cl)nc2C(=O)NS(C)(=O)=O)c2nc(N3CCC(c4c(C)n[nH]c4C)CC3)n(C)c(=O)c2c1 [Compound 232, (R)-6-chloro-3-((1-(2-(4-(3,5-dimethyl-1H-pyrazol-4-yl)piperidin-1-yl)-3,6-dimethyl-4-oxo-3,4-dihydroquinazolin-8-yl)ethyl)amino)-N-(methylsulfonyl) picolinamide] | 1000 to 5000 nM | < 250 nM |  |  | 
